Measured values taken from patent US20220054559A1, “COMPOSITIONS AND METHODS FOR ENHANCING EXERCISE ENDURANCE” (PRESIDENT AND FELLOWS OF HARVARD COLLEGE, priority 2019, published 2022).
Entries after “also recorded” stand apart in the source; their conditions may differ.

Tests used:
Format in all cases: in vivo, mouse
[1] = 13C3-lactate flux tracing after tail-vein injection (LC-MS)
Experimental: It was next determined whether systemic lactate is capable of crossing the epithelial barrier into the gut lumen. […] At sacrifice, serum and plasma were immediately collected following cardiac puncture, and intestinal luminal contents were collected by removing the colon and cecum from the mice and gently sampling the inner surface of the tissue.
20% w/w ^13C3 sodium lactate (Cambridge Isotope Laboratories™) was diluted with PBS to a concentration of 400 mM in PBS. […] […] […] Whole blood was divided into two samples to obtain both serum and plasma, which was flash frozen in liquid nitrogen and stored at −80° C.
Immediately following cardiac puncture, mice were dissected to remove colon and cecum, and the contents were removed by squeezing with sterilized forceps into pre-weighed tubes. Contents were immediately flash frozen in liquid nitrogen. […]
Samples were analyzed for lactate and propionate by a Metabolomics Platform. LC-MS metabolomics were performed as previously described. 23 LC-MS traces were identified and integrated to quantify presence of ^13C0- and ^13C3-lactate isotopes.

mice = assay: Colorectal propionate instillation, treadmill run to exhaustion; settings: 200 μL 150 mM sodium propionate in PBS into the colon 30 minutes prior to exercise, n=8, P=0.03
Experimental: (§1) Treadmilling followed the same protocol as above. Mice were fasted 7 hours prior to exercise, to normalize metabolic profiles. 30 minutes prior to exercise, mice were treated with 200 μL of either PBS vehicle alone (n=8) or 150 mM sodium propionate in PBS (n=8) using a flexible gavage needle to introduce 200 μL of solution into the colon. Mice were run to exhaustion as above. This protocol was repeated for 3 consecutive days. On the first day of treatment, serum was collected 40 minutes post-exhaustion via tail-vein bleed and measured using the Ciraplex™ multiplex mouse cytokine assay (Aushon BioSystems™)

inflammatory cytokines = assay: Serum inflammatory cytokines after treadmill run, intrarectal propionate; settings: serum taken 40 minutes after treadmill running, intrarectal propionate versus vehicle
Experimental: as §1

[2] = 100 μL of 400 mM intravenously via tail vein, sacrifice 12 minutes after injection, LC-MS

| Structure (SMILES) | 13C3-labelled lactate detected in tissues [1, 2] | 13C3-labelled propionate detected in tissues [1, 2] | earliest time at which serum lactate levels returned to baseline after tail-vein injection ([1]; tail-vein injection) | treadmill runtime versus pH-matched placebo vehicle (mice) | serum inflammatory cytokine levels (inflammatory cytokines) |
| --- | --- | --- | --- | --- | --- |
| [13CH3][13CH](O)[13C](=O)[O-].[Na+] (centres unmarked) [^13C3 sodium lactate] | present in both the serum and plasma as well as in the lumen of the colons and ceca | No ^13C3-labelled propionate was detected in these tissues | 12 min | – | – |
| CCC(=O)[O-].[Na+] [propionate, sodium propionate] | – | – | – | increased treadmill runtime; also recorded: improves maximum run time | no significant differences in cytokine levels were found |
